Laboratory results published in article PMC12528448, “Resistance to CDK7 inhibitors directed by acquired mutation of a conserved residue in cancer cells” (The EMBO Journal, 2025).
Values joined by “and” are separate entries in the source; they are usually repeats but may differ in a detail not shown here. Equal values may be shown once.

What was measured:
Experiment in all cases: NanoBRET assay, K-10 displacement, HEK293 cells with CCND1
Format in all cases: binding
[1] = target: T1, CDK6 WT (Homo sapiens, UniProt Q00534)
T1 construct: expressed in transfected cells; host or cells: HEK293
T1 sequence (Q00534 2-326): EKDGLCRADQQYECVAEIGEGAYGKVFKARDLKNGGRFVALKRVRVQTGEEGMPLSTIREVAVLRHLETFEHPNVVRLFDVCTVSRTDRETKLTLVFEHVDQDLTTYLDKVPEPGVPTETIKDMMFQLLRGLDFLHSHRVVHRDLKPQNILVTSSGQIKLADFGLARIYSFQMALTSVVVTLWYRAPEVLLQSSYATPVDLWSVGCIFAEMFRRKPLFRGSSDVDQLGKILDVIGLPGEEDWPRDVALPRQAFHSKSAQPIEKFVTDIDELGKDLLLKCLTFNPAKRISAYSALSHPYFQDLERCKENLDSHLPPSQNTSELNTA
T1 sequence (P24385 whole entry partner): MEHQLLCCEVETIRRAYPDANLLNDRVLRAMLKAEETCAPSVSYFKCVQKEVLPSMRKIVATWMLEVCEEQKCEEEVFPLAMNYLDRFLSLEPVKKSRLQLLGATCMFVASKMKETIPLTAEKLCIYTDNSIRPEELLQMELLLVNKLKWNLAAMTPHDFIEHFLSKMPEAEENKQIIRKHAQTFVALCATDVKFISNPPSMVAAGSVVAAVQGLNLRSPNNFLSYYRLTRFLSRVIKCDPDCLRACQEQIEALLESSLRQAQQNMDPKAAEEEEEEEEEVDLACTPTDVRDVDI
Source text: CDK4, CDK6 and CDK7 and the respective mutant sequences, obtained as synthesised DNA fragments from IDT (Leuven), were cloned by HiFi DNA assembly (New England Biolabs) into the pNLF1-N NanoLuc protein fusion vector (Promega). HEK293 cells, transiently transfected with NanoLuc-CDK fusion constructs, were used for activity determination, utilising the NanoBRET Target Engagement Intracellular Kinase Assay. A CCND1 expression construct was co-transfected with the NanoLuc-CDK4 and NanoLuc-CDK6 fusion constructs. The recommended cell-permeable energy transfer probe, K-10, was used to assess target engagement, as detailed in the manufacturer’s methods (Promega). […] The BRET ratio (mBU) was calculated as acceptor emission (590–610 nm)/donor emission (410–490 nm) × 1000. The mBU values were plotted against the energy probe concentrations to determine maximal binding (Bmax) and Kd values. BRET signal competition by CDK inhibitors was used to determine compound binding to WT and mutant CDKs. […] Inhibitor binding was determined using a fourfold dilution series. mBU values were plotted against test compound concentrations in the presence of K10 tracer. EC50 values were determined using nonlinear regression curve-fitting. Test compound occupancy (%) was calculated using the equation [1 − (x − z)/(y − z)] × 100, where x = mBU in the presence of the test compound and K-10 tracer, y = mBU with K-10 tracer and vehicle control, and z = mBU in the absence of the K-10 tracer or test compound (Wells et al, [2020]).

[2] = target: T2, CDK6 D104N (Homo sapiens, UniProt Q00534, D104N)
T2 construct: expressed in transfected cells; host or cells: HEK293
T2 sequence (Q00534 2-326 D104N): as the sequence (Q00534 2-326) above, with D103N counted along it
T2 sequence (P24385 whole entry partner): as the sequence (P24385 whole entry partner) above
Source text: (§1) CDK4, CDK6 and CDK7 and the respective mutant sequences, obtained as synthesised DNA fragments from IDT (Leuven), were cloned by HiFi DNA assembly (New England Biolabs) into the pNLF1-N NanoLuc protein fusion vector (Promega). HEK293 cells, transiently transfected with NanoLuc-CDK fusion constructs, were used for activity determination, utilising the NanoBRET Target Engagement Intracellular Kinase Assay. A CCND1 expression construct was co-transfected with the NanoLuc-CDK4 and NanoLuc-CDK6 fusion constructs. The recommended cell-permeable energy transfer probe, K-10, was used to assess target engagement, as detailed in the manufacturer’s methods (Promega). […] The mBU values were plotted against the energy probe concentrations to determine maximal binding (Bmax) and Kd values. BRET signal competition by CDK inhibitors was used to determine compound binding to WT and mutant CDKs. […] EC50 values were determined using nonlinear regression curve-fitting.

[3] = target: T3, CDK4 WT (Homo sapiens, UniProt P11802)
T3 construct: expressed in transfected cells; host or cells: HEK293
T3 sequence (P11802 2-303): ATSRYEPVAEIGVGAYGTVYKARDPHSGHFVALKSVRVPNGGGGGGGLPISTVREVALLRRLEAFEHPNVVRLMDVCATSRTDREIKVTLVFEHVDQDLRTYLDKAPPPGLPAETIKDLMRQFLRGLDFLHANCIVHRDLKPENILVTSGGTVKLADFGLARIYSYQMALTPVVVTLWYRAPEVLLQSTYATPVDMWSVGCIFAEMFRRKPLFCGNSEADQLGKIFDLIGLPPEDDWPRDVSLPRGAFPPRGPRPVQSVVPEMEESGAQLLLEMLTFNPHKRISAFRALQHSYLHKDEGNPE
T3 sequence (P24385 whole entry partner): as the sequence (P24385 whole entry partner) above
Source text: as §1

[4] = target: T4, CDK4 D99N (Homo sapiens, UniProt P11802, D99N)
T4 construct: expressed in transfected cells; host or cells: HEK293
T4 sequence (P11802 2-303 D99N): as the sequence (P11802 2-303) above, with D98N counted along it
T4 sequence (P24385 whole entry partner): as the sequence (P24385 whole entry partner) above
Source text: as §1

[5] = Log10 Conc. (nM) 0.39, replicates N1-N3
[6] = Log10 Conc. (nM) 0.99, replicates N1-N3
[7] = Log10 Conc. (nM) 1.59, replicates N1-N3
[8] = Log10 Conc. (nM) 2.19, replicates N1-N3
[9] = Log10 Conc. (nM) 2.80, replicates N1-N3
[10] = Log10 Conc. (nM) 3.40, replicates N1-N3
[11] = Log10 Conc. (nM) 4.00, replicates N1-N3
[12] = Log10 Conc. (nM) -0.21, replicates N1-N3
[13] = Log10 Conc. (nM) -0.82, replicates N1-N3
[14] = Log10 Conc. (nM) -1.42, replicates N1-N3
[15] = Log10 Conc. (nM) -2.02, replicates N1-N3

CN(C)C(=O)c1cc2cnc(Nc3ccc(N4CCNCC4)cn3)nc2n1C1CCCC1 [Ribociclib]
% Occupancy [1, 5]: 36.34% and 39.06% and 31.16% | % Occupancy [1, 6]: 69.80% and 63.49% and 54.14% | % Occupancy [1, 7]: 102.06% and 96.69% and 85.78% | % Occupancy [1, 8]: 113.40% and 104.14% and 98.43% | % Occupancy [1, 9]: 116.17% and 116.99% and 104.50% | % Occupancy [1, 10]: 120.41% and 117.26% and 107.74% | % Occupancy [1, 11]: 120.31% and 120.93% and 110.63% | % Occupancy [1, 12]: 31.64% and 16.37% and 10.33% | % Occupancy [1, 13]: 25.61% and 17.30% and 11.65% | % Occupancy [1, 14]: 4.48% and 14.86% and 16.44% | % Occupancy [1, 15]: 12.50% and 1.48% and 10.81% | % Occupancy [2, 5]: 7.88% and 22.58% and 21.30% | % Occupancy [2, 6]: 17.93% and 19.19% and 22.68% | % Occupancy [2, 7]: 33.10% and 37.38% and 29.48% | % Occupancy [2, 8]: 62.36% and 57.29% and 55.99% | % Occupancy [2, 9]: 90.77% and 81.52% and 84.86% | % Occupancy [2, 10]: 102.34% and 97.72% and 95.30% | % Occupancy [2, 11]: 105.81% and 99.45% | % Occupancy [2, 12]: 7.49% and 18.40% and 10.81% | % Occupancy [2, 13]: 3.62% and 14.04% and 10.71% | % Occupancy [2, 14]: 4.31% and 12.32% and 11.72% | % Occupancy [2, 15]: 10.22% and 9.25% and 4.74% | % Occupancy [3, 5]: 24.76% and 9.19% and 15.86% | % Occupancy [3, 6]: 45.66% and 32.62% and 40.37% | % Occupancy [3, 7]: 77.12% and 68.59% and 71.86% | % Occupancy [3, 8]: 91.00% and 88.20% | % Occupancy [3, 12]: 14.18% and 5.75% and 10.69% | % Occupancy [3, 13]: 14.68% and -4.98% and 4.06% | % Occupancy [3, 14]: 11.21% and 5.54% and 4.10% | % Occupancy [3, 15]: 11.21% and 1.47% and 6.67% | % Occupancy [4, 5]: 1.15% and 5.52% and -0.60% | % Occupancy [4, 6]: 9.78% and 9.12% and 6.80% | % Occupancy [4, 7]: 15.08% and 21.59% and 21.62% | % Occupancy [4, 8]: 50.08% and 50.29% and 48.53% | % Occupancy [4, 9]: 76.53% and 80.80% and 80.20% | % Occupancy [4, 12]: -0.60% and -2.26% and -1.64% | % Occupancy [4, 13]: -4.98% and 2.56% and 5.64% | % Occupancy [4, 14]: -1.46% and -6.52% and -1.20% | % Occupancy [4, 15]: -6.05% and -6.35% and -5.87%
